Laboratory results from patent US20260103474A1, “NOVEL COMPOUNDS FOR THE DIAGNOSIS OF TDP-43 PROTEINOPATHIES” (AC IMMUNE SA, priority 2022, published 2026).

Key:
[1] = biological target: human FTD Type A sarkosyl-insoluble brain extracts (Homo sapiens, UniProt Q13148); test: Kd determination by micro-radiobinding assay on FTD Type A extracts; type: binding; conditions: tritiated compound 1.29 to 300 nM
Procedure: (§1) Human brain extracts were prepared as described in Laferriere et al., 2019, Nature Neurosc. A sample of brain tissue (frontal or temporal cortex) was homogenized at 1:4 (w/v) ratio in the homogenization-solubilization (HS) buffer at 4° C. using tissue homogenizer (Precellys) with CKmix homogenization tubes. The following sequence was used for homogenization: 3 cycles of 30 seconds at 5000 rpm (with 15 seconds pause between each cycle). Homogenized samples were aliquoted and stored at −80° C. in 1.5 mL low protein binding tubes.
(§2) Brain homogenates were thawed on ice and resuspended in HS buffer to obtain a final concentration of 2% sarkosyl, 1 unit/μL Benzonase and 1 mM MgCl2. The samples were then incubated at 37° C. under constant shaking at 600 rpm on a thermomixer for 45 minutes (min). The supernatants were collected in a new tube (sarkosyl-soluble fraction, S1). The pellet was resuspended in 1000 μL of myelin floatation buffer and centrifuged at 20,000 g for 60 min at 4° C. The supernatant was carefully removed to remove all the floating lipids. This step was repeated if all the lipids could not be removed in a single step. The pellet was subsequently washed with Phosphate-Buffered Saline (PBS) and centrifuged for 30 min at 20,000 g at 4° C. The final pellet was resuspended in 200 μL PBS and stored at −80° C. (sarkosyl-insoluble fraction). The samples were analyzed by immunoblotting in denaturing conditions.
Human FTD sarkosyl-insoluble brain extracts were spotted onto microarray slides. The slides were incubated with [^3H]-Compounds 1, 7, 8, 9, 15, 16 and 17 in a range of concentrations, varying from 1.29 to 300 nM. After incubation, slides were washed and scanned by a real-time autoradiography system (BeaQuant, ai4R). Quantification of the signal was performed by using the Beamage image analysis software (ai4R). Non-specific signal was determined with an excess of non-radiolabeled compound 1, 7, 8, 9, 15, 16 and 17 (1 μM), respectively, and specific binding was calculated by subtracting the non-specific signal from the total signal.
The Kd (Dissociation constant) and R^2 (parameter ranging between 0.0 and 1.0 that quantifies the goodness of fit, and the best curve fit obtained with value of 1.0) were obtained by fitting the specific binding data with non-linear regression analysis, using a one-site specific binding model in GraphPad Prism8.

Abeta = biological target: T1, Abeta (Homo sapiens, UniProt P05067); test: Radiobinding competition assay using Abeta reference compound on AD insoluble fraction of brain homogenates; type: binding; conditions: against [3H]Abeta reference compound; cells printed in μM; read-out: Ki on AD brain homogenates
T1 construct: an AD donor with confirmed burden of Tau and Abeta aggregates; from tissue; host or cells: frontal cortex of a human AD donor, Triton/sucrose-insoluble fraction
Procedure: Approximately 4 g of frozen tissue block from frontal cortex brain region was used from an AD donor with confirmed burden of Tau and Abeta aggregates. The tissue was homogenized in three volumes (1:3 w/v) of high salt buffer (50 mM Tris-HCl pH 7.5, 750 mM NaCl, 5 mM EDTA) supplemented with protease inhibitors (Complete; Roche 11697498001) at 4° C. with a glass Dounce homogenizer. The homogenate was transferred into polycarbonate centrifuge bottles (16×76 mm; Beckman 355603) and centrifuged at 100,000×g (38,000 RPM) in an ultracentrifuge (Beckman, XL100K) for 60 minutes at 4° C. using a pre-cooled 70.1 rotor (Beckman, 342184). Pellets were resuspended in high salt buffer supplemented with 1% Triton X-100 and homogenized at 4° C. with a syringe. The homogenates were centrifuged again at 100,000×g (38,000 RPM, 70.1 rotor) for 60 minutes at 4° C. Pellets were resuspended in high salt buffer supplemented with 1% Triton X-100 and 1 M sucrose and homogenized at 4° C. with a syringe. The homogenates were centrifuged at 100,000×g (38,000 RPM, 70.1 rotor) for 60 minutes at 4° C. The resulting pellets containing insoluble fraction were resuspended in PBS (1:2 w/v relative to starting tissue weight), aliquoted and stored at −80° C. until use.
The reaction was performed in assay buffer (50 mM Tris pH 7.5 in 0.9% NaCl, 0.1% BSA) and incubated for two hours at room temperature (RT). Samples in duplicate were then filtered under vacuum in GF/C filter plates (PerkinElmer) to trap the aggregates with the bound radioligand and washed with 100 μL ice-cold 50 mM Tris pH 7.5. The GF/C filters were then dried and scintillation liquid (UltimateGold, PerkinElmer, 6013151) was added in each well. The filters were analyzed on a Microbeta2 scintillation counter (PerkinElmer). Values for the maximal signal were obtained in the absence of non-radiolabeled compound, while 100% displacement was obtained using 1 μM of non-radiolabeled reference compound. Ki values were calculated by nonlinear regression, using a one site—fit Ki model in Prism V7 (GraphPad).

TDP-43 aggregates = TDP-43 aggregates (Homo sapiens, UniProt Q13148); test: Classical autoradiography in brain sections from patients with FTD; type: binding
Procedure: All tissues were collected from donors for or from whom a written informed consent for a brain autopsy and the use of the material and clinical information for research purposes had been obtained by the respective brain banks. All samples were anonymized and coded. Frozen brain tissue blocks with confirmed TDP-43 pathology upon autopsy were processed using a cryotome to generate sections of 10 μm in thickness and mounted on glass slides. Sections were kept at −80° C. until use.
Brain sections were fixed for 15 minutes at 4° C. with 4% formaldehyde on ice and washed three times for eight minutes with 1×PBS at RT. Sections were blocked in assay buffer for 30 minutes (50 mM Tris-HCl, 0.9% NaCl+0.1% BSA). Cold test compound (Compound 1, Compound 8 or Compound 17) was diluted in assay buffer to 4 μM and applied on half of the sections for 40 minutes at RT to determine non-specific binding. The remaining half of the sections were only incubated with assay buffer (total binding). Following this incubation, an equal volume of the corresponding tritiated compound (i.e. [^3H]-Compound 1, [^3H]-Compound 8 or [^3H]-Compound 17, respectively), diluted to 20 nM (for [^3H]-Compound 1 and [^3H]-Compound 8) or 10 nM ([^3H]-Compound 17) or increasing concentration from 0.1 to 200 nM (for [^3H]-Compound 1 and [^3H]-Compound 17), was added on sections and incubated for 2 hours at RT and then washed as follows: once in ice-cold 50 mM Tris-HCl pH 7.4 buffer for one minute, twice in ice-cold PBS for one minute, once in ice-cold 50 mM Tris-HCl pH 7.4 buffer for one minute and finally rinsed briefly in ice-cold distilled water.
Sections were subsequently dried under a stream of air and mounted with a copper-based adhesive strip. Bound radioactivity was quantified by exposing the slides in a real-time autoradiography system (Beaquant™ AI4R) for 2 hours, with measurement settings configured for tritium. Beavacq software (AI4R) was used to acquire the image which was subsequently quantified using Beamage image analysis software (AI4R). Specific binding (non-specific binding subtracted from total) and displacement (total binding divided by non-specific) were calculated. Bar graphs were generated using GraphPad Prism. For Kd determination on brain sections, the specific binding data were fitted with a non-linear regression analysis using a one-site specific binding model in GraphPad Prism.

[2] = biological target: T2, Human brain derived TDP-43 aggregates (Homo sapiens, UniProt Q13148); test: Micro-radiobinding competition assay for binding affinity to TDP-43; conditions: for Ki: 0.24 nM to 2 μM vs tritiated reference ligand at 40 nM; for Human brain derived TDP-43 aggregates Mean % competition at 250 nM: non-radiolabeled compound at 250 nM vs tritiated reference ligand at 40 nM; for Human brain derived TDP-43 aggregates Mean % competition at 250 nM / Human brain derived TDP-43 aggregates Mean % competition at 2 μM: FTD sarkosyl-insoluble brain extracts; for Human brain derived TDP-43 aggregates Mean % competition at 2 μM: non-radiolabeled compound at 2 μM vs tritiated reference ligand at 40 nM
T2 construct: Human FTD sarkosyl-insoluble brain extracts were spotted onto microarray slides
Procedure: as §1, §2
Human FTD sarkosyl-insoluble brain extracts were spotted onto microarray slides. The slides were incubated with a tritiated reference ligand at 40 nM, and the example compounds (non-radiolabeled) at 2 μM and 250 nM. […] After incubation, slides were washed and scanned by a real-time autoradiography system (BeaQuant, ai4R). Quantification of the signal was performed by using the Beamage image analysis software (ai4R). Non-specific signal was determined with an excess of non-radiolabeled reference compound (2 μM) and specific binding was calculated by subtracting the non-specific signal from the total signal. Competition was calculated as percent, where 0% was defined as the specific binding in the presence of vehicle and 100% as the values obtained in the presence of excess of the non-radiolabeled reference compound. Ki values were calculated in GraphPad Prism8 by applying a nonlinear regression curve fit using a one site, specific binding model. Measurements were performed with at least two technical replicates in the two-concentration competition experiment and with one technical replicate in the experiments including a range of concentrations. For compounds tested in more than one experiment, the mean of the replicates or Ki values in independent experiments is reported.

[3] = PK studies in healthy monkey (PET); type: in vivo; conditions: iv, Non-Human Primate; for Time of brain entry post injection / Washout: peak to half peak: whole brain
Procedure: Non-Human Primate (NHP) was injected intravenously (iv) with the [^18F]-labeled Compound 1 ([^18F]Compound 1) (4.2 mCi) or with the [^18F]-labeled Compound 17 ([^18F]-Compound 17) (5.3 mCi). Monkey PET scans were performed using a Siemens Focus 220. PET acquisition started immediately before the radioactive dose was injected. Images were generated as dynamic scans for 120 minutes with head focused.

[4] = total binding divided by non-specific binding, grey matter, self-block with cold compound

Sequence of TDP-43 aggregates (Q13148 whole entry): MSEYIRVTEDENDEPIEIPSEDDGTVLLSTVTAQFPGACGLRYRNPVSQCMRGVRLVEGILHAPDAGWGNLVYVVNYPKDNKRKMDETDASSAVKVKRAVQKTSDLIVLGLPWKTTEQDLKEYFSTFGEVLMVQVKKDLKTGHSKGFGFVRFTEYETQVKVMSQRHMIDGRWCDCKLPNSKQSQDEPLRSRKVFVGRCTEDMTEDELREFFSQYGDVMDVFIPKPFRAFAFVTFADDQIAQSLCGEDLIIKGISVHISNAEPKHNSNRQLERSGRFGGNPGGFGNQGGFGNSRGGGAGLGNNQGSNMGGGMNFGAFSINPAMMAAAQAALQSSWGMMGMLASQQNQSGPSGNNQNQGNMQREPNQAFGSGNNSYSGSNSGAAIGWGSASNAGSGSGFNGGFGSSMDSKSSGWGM
T1 sequence (P05067 672-713 limits assumed): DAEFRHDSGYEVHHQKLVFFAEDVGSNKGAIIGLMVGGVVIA
T2 sequence (Q13148 261-414 limits assumed): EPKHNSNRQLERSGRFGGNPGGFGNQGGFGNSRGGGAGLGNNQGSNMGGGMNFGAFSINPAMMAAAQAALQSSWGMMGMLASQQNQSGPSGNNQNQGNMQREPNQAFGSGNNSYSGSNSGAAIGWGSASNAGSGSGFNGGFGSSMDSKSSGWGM
Sequence of human FTD Type A sarkosyl-insoluble brain extracts (Q13148 263-414 limits assumed): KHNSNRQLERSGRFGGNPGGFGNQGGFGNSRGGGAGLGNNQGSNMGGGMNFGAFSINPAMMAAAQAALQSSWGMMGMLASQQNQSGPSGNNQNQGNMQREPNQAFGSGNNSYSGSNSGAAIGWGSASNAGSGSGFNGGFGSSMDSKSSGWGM

SMILES	Kd [1] [nM]	Ki (Abeta) [µM]	Ki [2] [nM]	Human brain derived TDP-43 aggregates Mean % competition at 250 nM [2] [%]	Human brain derived TDP-43 aggregates Mean % competition at 2 μM [2] [%]	further results
[3H]c1cc(N2CCc3nc(-c4cc([3H])c(N5CC[C@@H](F)C5)nc4F)sc3C2=O)ccn1 [[^3H]-Compound 7, Tritiated (R)-2-(2-fluoro-6-(3-fluoropyrrolidin-1-yl)pyridin-3-yl)-5-(pyridin-4-yl)-6,7-dihydrothiazolo[5,4-c]pyridin-4(5H)-one]	39 ± 11	–	–	–	–	–
[3H]c1cnc(N2CCc3nc(-c4cc([3H])c(N5CC[C@@H](F)C5)nc4F)sc3C2=O)nc1 [[^3H]-Compound 15, Tritiated 2-[2-fluoro-6-[(3R)-3-fluoropyrrolidin-1-yl]-3-pyridyl]-5-pyrimidin-2-yl-6,7-dihydrothiazolo[5,4-c]pyridine-4-one]	21 ± 7	–	–	–	–	–
O=C1c2sc(-c3ccc(N4CC[C@H](F)C4)nc3F)nc2CCN1c1cccnc1 [Compound 8, (S)-2-(2-fluoro-6-(3-fluoropyrrolidin-1-yl)pyridin-3-yl)-5-(pyridin-3-yl)-6,7-dihydrothiazolo[5,4-c]pyridin-4(5H)-one]	–	> 1	73	55	73	Displacement on FTLD-TDP type A and B compared to non-demented control (TDP-43 aggregates; classical autoradiography): increased displacement; cARG displacement on FTLD-TDP Type A case (TDP-43 aggregates; [4]): 3.0; cARG displacement on FTLD-TDP Type B case (TDP-43 aggregates; [4]): 3.3; cARG displacement on non-demented control (TDP-43 aggregates; [4]): 2.3
[3H]c1cncc(N2CCc3nc(-c4cc([3H])c(N5CC[C@H](F)C5)nc4F)sc3C2=O)c1 [[^3H]-Compound 8, tritiated (S)-2-(2-fluoro-6-(3-fluoropyrrolidin-1-yl)pyridin-3-yl)-5-(pyridin-3-yl)-6,7-dihydrothiazolo[5,4-c]pyridin-4(5H)-one]	47 ± 8	–	–	–	–	–
O=C1c2sc(-c3ccc(N4CC[C@@H]([18F])C4)nc3F)nc2CCN1c1cccnc1 [[^18F]-Compound 1, fluorinated 2-[2-fluoro-6-[(3R)-3-fluoropyrrolidin-1-yl]-3-pyridyl]-5-(3-pyridyl)-6,7-dihydrothiazolo[5,4-c]pyridin-4-one]	–	–	–	–	–	SUVmax whole brain [3]: 2.7 SUVmax; Time of brain entry post injection [3]: 5.5 min; Washout: peak to half peak [3]: < 17 min
O=C1c2sc(-c3ccc(N4CC[C@H](F)C4)nc3F)nc2CCN1c1ncccn1 [[^3H]-Compound 16]	24 ± 3	–	–	–	–	–
O=C1c2sc(-c3ccc(N4CCC(CO)CC4)nc3[18F])nc2CCN1c1cccnc1 [[^18F]-Compound 17, 2-(2-(fluoro-^18F)-6-(4-(hydroxymethyl)piperidin-1-yl)pyridin-3-yl)-5-(pyridin-3-yl)-6,7-dihydrothiazolo[5,4-c]pyridin-4(5H)-one]	–	–	–	–	–	SUVmax whole brain [3]: 1.1 SUVmax; Time of brain entry post injection [3]: 4.5 min; Washout: peak to half peak [3]: < 13 min
O=C1c2sc(-c3ccc(N4CCCC4)nc3F)nc2CCN1c1cccnc1 [Compound 9, 2-(2-fluoro-6-(pyrrolidin-1-yl)pyridin-3-yl)-5-(pyridin-3-yl)-6,7-dihydrothiazolo[5,4-c]pyridin-4(5H)-one]	–	> 1	31	62	75	–
O=C1c2sc(-c3ccc(N4CCC[C@H](F)C4)nc3F)nc2CCN1c1cnsc1 [Compound 27, (S)-2-(2-fluoro-6-(3-fluoropiperidin-1-yl)pyridin-3-yl)-5-(isothiazol-4-yl)-6,7-dihydrothiazolo[5,4-c]pyridin-4(5H)-one]	–	> 1	48	57	94	–
